Measurements published in patent publication US20180360940A1, “LISTERIA-BASED IMMUNOTHERAPY AND METHODS OF USE THEREOF” (priority 2015, published 2018).
Read-outs that look alike come from different tables or passages of the source.

Assays:
[1] = test system: PSA-specific and SIINFEKL-specific immunity; assay: PSA- and […]-specific CD8 T cells after PSA-SVN Tag with early antibiotics; type: in vivo, C57BL/6 mice; conditions: PSA-SVN Tag IP, spleens day 7
Method: FIGS. 17A-D Results from early time point administration of ampicillin at 2 hours, 4 hours, and 6 hours post-Lm vaccine. % PSA specific CD8 T cells (FIG. 17A), % […] specific CD8 T cells (FIG. 17B), # of PSA specific CD8 cells (FIG. 17C), and # of […] specific CD8 cells (FIG. 17D).
FIGS. 18A-B Splenocytes from early gentamicin treatment at 2 hours, 4 hours, or 6 hours +ampicillin 24 hour chase of LM-PSA-SVN treated mice. % PSA specific CD8 T cells (FIG. 18A) and % […] specific CD8 T cells (FIG. 18B).
An assay was performed to examine the generation of […]-specific and PSA-specific immunity in mice treated with ampicillin or gentamicin/ampicillin and immunized with PSA-SVN Tag. The […]-specific immune response was detected by pentamer staining using the known T cell epitopes for C57BL/6 mice, H-2 Db PSA65-73 ([…]) and H-2 Kb OVA257-264 ([…]).
Prime-Harvest with Ampicillin: On Day 0, all groups were infected with PSA-SVN Tag LM IP, and then ampicillin was administered at 100 mg/kg IP at various time points from hour 2, 4, 6, 24. All Animals (except negative control) were given 1 dose of ampicillin at 24 hours. 7 days after Day 0 infection, mice were sacrificed and spleens were harvested and analyzed for specific T-cell epitopes to H-2 Db PSA65-73 ([…]) and H-2 Kb OVA257-264 ([…]). […]

[2] = test system: TC-1 tumor; assay: TC-1 tumor regression study, ADXS11-001 with or without ampicillin; type: in vivo, C57BL/6 female mice; conditions: DP ADXS11-001 (HPV 1.0) IP, ampicillin 100 mg/kg IP at 4-hr, 6-hr, 24-hr
Method: FIG. 20A-B Results for ADXS11-001 therapy with our without early ampicillin treatment. TC1 tumor regression (FIG. 20A) and % survival (FIG. 20B).
A tumor regression study was initiated in C57BL/6 female mice using TC-1 lung epithelial cells to assess the therapeutic efficacy of different Lm treatment with or without ampicillin treatment and whether it alters the tumor microenvironment.
Tumor Inoculation: The tumor model used in this study is the TC-1 tumor model. TC-1 cells are cultured in complete medium. Complete medium for TC-1 cells: 450 ml RPMI 1640, 50 ml 10%FBS, 5 ml NEAA (100 uM), 5 ml L-Glutamine ([…]), and 5 ml Pen/strep (100 U/mL) penicillin+100 ug/mL streptomycin) G418 (400 ug/mL) (added to cells when splitting). Two days prior to implanting tumor cells in mice, TC-1 cells were sub-cultured in complete media. On the day of the experiment (Day 0), cells were trypsinized and washed twice with media. Cells were counted and re-suspended at a concentration of 1×10^5 cells/200 ul in PBS/mouse for injection. Tumor cells were injected subcutaneously in the right flank of each mouse. Tumors were measured twice a week until they reached a size of 12 mm in diameter. Once tumors met sacrifice criteria, mice were euthanized and tumors were excised and measured.
Vaccine/Ampicillin Treatment: On Day 6, when tumors are ˜5mm in size; vaccines and treatments began. […]

[3] = test system: TPSA23 tumor; assay: TPSA23 tumor regression study, ADXS31-142 with or without ampicillin; type: in vivo, C57BL/6 male mice; conditions: DP ADXS31-142 (PSA 1.0) IP, ampicillin 100 mg/kg IP at 4-hr, 6-hr, 24-hr
Method: FIG. 22A-B Results for ADXS31-142 therapy with our without early ampicillin treatment. TC1 tumor regression (FIG. 22A) and % survival (FIG. 22B).
A tumor regression study was initiated in C57BL/6 male mice using TPSA23 prostate cancer cells to assess the therapeutic efficacy of different Lm treatment with or without ampicillin treatment.
Tumor Inoculation: The tumor model used in this study is the TPSA23 tumor model. TPSA23 cells are cultured in complete medium. Complete medium for TPSA23 cells: 430 ml DMEM with Glucose, 45 ml FBS, 25 ml Nu-Serum IV, 5 ml L-Glutamine, 5 ml Na-bicarbonate, 0.005 mg/ml Bovine Insulin—Insulin stock (2.5 mg/ml) is prepared in acidified water (10 ml water+100 ul glacial acetic acid) (Add to the flask while splitting cells—6.4 uL/8 mLs media, 12.8 uL/16 mLs media, 19.2 uL/24 mLs media, etc.), and 10 nM Dehydroisoandrosterone (DHA)—DHA stock (10 mM) is prepared in ethanol. (Add to the flask while splitting cells—140 uL/70 mLs media, 70 uL/35 mLs media, 35 uL/17.5 mLs media, etc.). Two days prior to implanting tumor cells in mice, TPSA23 cells are sub-cultured in complete media. […] Cells were counted and re-suspended at a concentration of 2×10^6 cells/200 ul in PBS/mouse for injection. […] Tumors are measured twice a week until they reach a size of 12 mm in diameter. Once tumors met sacrifice criteria, mice were euthanized and tumors were excised and measured. […]

[4] = 10 mg/mL in sterile H2O, cited from earlier work

| Compound | PSA specific and SIINFEKL specific CD8 T cells, difference between groups ([1]; ampicillin 100 mg/kg IP at 2, 4, 6 hours plus 24 hours) | survival, difference between Lm treatment groups with or without ampicillin [2] | tumor regression, difference between Lm treatment groups with or without ampicillin [2] | survival, difference between Lm treatment groups with or without ampicillin [3] | tumor regression, difference between Lm treatment groups with or without ampicillin [3] | solution stability [4] | PSA specific and SIINFEKL specific CD8 T cells, difference between groups ([1]; gentamicin 5 mg/kg IP at 2, 4, 6 hours plus ampicillin 24 hour chase) | solution stability ([4]; 2-8 C) | solution stability ([4]; at 37 C) |
| --- | --- | --- | --- | --- | --- | --- | --- | --- | --- |
| CC1(C)S[C@@H]2[C@H](NC(=O)[C@H](N)c3ccccc3)C(=O)N2[C@H]1C(=O)O [ampicillin] | No significant difference | No significant difference | No significant difference | No significant difference | No significant difference | 3 days | – | – | – |
| gentamicin | – | – | – | – | – | – | No significant difference | months | 5 days |
